ChEMBL document CHEMBL1671662, “In vitro activities of telavancin and six comparator agents against anaerobic bacterial isolates” (2009)

Experiments:
Assay type in all cases: functional
Flavonifractor plautii = assay: Antibacterial activity against Clostridium orbiscindens by CLSI M11-A6 agar dilution method in presence of beta-lactamase inhibitor Sulbactam
Prevotella corporis = assay: Antibacterial activity against Prevotella corporis by CLSI M11-A6 agar dilution method in presence of beta-lactamase inhibitor Sulbactam
Eggerthella lenta = assay: Antibacterial activity against Eggerthella lenta by CLSI M11-A6 agar dilution method in presence of beta-lactamase inhibitor Sulbactam
Clostridium sporogenes = assay: Antibacterial activity against Clostridium sporogenes by CLSI M11-A6 agar dilution method in presence of beta-lactamase inhibitor Sulbactam
Anaerococcus tetradius = assay: Antibacterial activity against Anaerococcus tetradius by CLSI M11-A6 agar dilution method in presence of beta-lactamase inhibitor Sulbactam

Structure (SMILES): CC1(C)S[C@@H]2[C@H](NC(=O)[C@H](N)c3ccccc3)C(=O)N2[C@H]1C(=O)O [AMPICILLIN]
- MIC50 (Flavonifractor plautii): 0.25 mg/L
- MIC90 (Flavonifractor plautii): 1 mg/L
- MIC50 (Prevotella corporis): ≤ 0.12 mg/L
- MIC90 (Prevotella corporis): 2 mg/L
- MIC50 (Eggerthella lenta): 0.25 mg/L
- MIC90 (Eggerthella lenta): 1 mg/L
- MIC50 (Clostridium sporogenes): 0.25 mg/L
- MIC90 (Clostridium sporogenes): 1 mg/L
- MIC50 (Anaerococcus tetradius): 0.25 mg/L
- MIC90 (Anaerococcus tetradius): 0.5 mg/L
